± gives the expanded uncertainty stated by the source.
Conditions: Liquid, Ebulliometric method (Recirculating still)

Row | Structure (SMILES) | vapor or sublimation pressure (391.07 K) [kPa] | vapor or sublimation pressure (413.46 K) [kPa] | vapor or sublimation pressure (330.01 K) [kPa] | vapor or sublimation pressure (349.53 K) [kPa]
1 | CC(=O)OCCC(C)C [3-methylbutyl ethanoate] | 50 ± 1 | 100 ± 1 |  | 
2 | CCOC(C)=O [ethyl acetate] |  |  | 50 ± 1 | 100 ± 1
